# Results as given in patent publication US9321722B2, “Bis-indolic derivatives, their uses in particular as antibacterials” (UNIVERSITE JOSEPH FOURIER, priority 2011, dated 2016).
# Key:
# Type in all cases: cell-based
# [1] = test system: Staphylococcus aureus MSSA 476; test: MIC, Staphylococcus panel (Table I-2); conditions: 18 h, 4% DMSO
# Method: (§1) We used the previously described protocol, with subtle modifications. The microdilution method recommended by the Clinical and Laboratory Standard Institute [M07-A9, Vol. 32, N^o 2] was used. The activity of bis-indolic compounds was tested against 35 bacterial strains belonging to 12 different Staphylococcus species.
# (§2) Bacterial inocula were prepared in Mueller Hinton broth (MH2, BioMerieux, Marcy L'Etoile, France). They were dispensed in 96 well microtiter plates (5×10^5 CFU/ml of final inoculum, 192 μL per well). Indolic compounds diluted in pure DMSO (8 μL per well, concentrated 25 times) were added to the wells as to obtain two-fold serial concentrations (0.5-32 mg/L of final concentrations). The final concentration of DMSO was 4% in each well.
# (§3) To avoid cross-contaminations in microtiter plates, one row was left blank between each strain tested. Microplates were incubated for 18 h at 37° C. in ambient air or at 37° C. in 5% CO2 enriched atmosphere for fastidious species. Then MICs were read visually and, in case of visual reading difficulties, confirmed using a spectrophotometer at a wavelength of 630 nm (BioTek® EL808 Absorbance Microplate Reader). MICs corresponded to the minimum bis-indolic compound concentration that allowed complete visual growth inhibition of bacteria. Drug-free cultures served as growth controls.
# (§4) We used four Staphylococcus aureus strains. Two reference strains were provided by the French reference center for Staphylococcus spp. (Lyon, France), including one methicillin-susceptible (MSSA 476) and one methicillin-resistant (MRSA 252) S. aureus strains. The two remaining S. aureus strains were purchased from the CRBIP (Centre de Ressources Biologiques de l'Institut Pasteur): a vancomycin-intermediate strain (ATCC 106414) and a S. aureus strain (SA-1199B) resistant to fluoroquinolones due to overexpression of the NorA multidrug efflux pump.
# [2] = test system: Staphylococcus aureus SA-1199B (NorA); test: MIC, Staphylococcus panel (Table I-2); conditions: 18 h
# Method: as §1, §2, §3, §4
# [3] = test system: Staphylococcus aureus ATCC 106414 (VISA); test: MIC, Staphylococcus panel (Table I-2); conditions: 18 h, 4% DMSO
# Method: as §1, §2, §3, §4
# [4] = test system: Staphylococcus aureus MRSA 252; test: MIC, Staphylococcus panel (Table I-2); conditions: 18 h, 4% DMSO
# Method: as §1, §2, §3, §4
# [5] = test system: HCT116 (human colon tumor); test: In vitro cytotoxicity; conditions: HCT-116, HCT116, in DMSO, duplicate
# [6] = test system: Staphylococcus simulans (CHUG-Ssim1); test: MIC, Staphylococcus panel (Table I-2); conditions: 18 h, 4% DMSO
# Method: as §1, §2, §3
# (§5) Coagulase-negative Staphylococcus strains included three reference strains purchased from CRBIP: a methicillin-susceptible S. epidermidis strain (ATCC 12228), a methicillin-resistant S. epidermidis strain (ATCC 49461), and a methicillin-susceptible S. sciuri strain (ATCC 29061). We also used clinical strains belonging to the following coagulase-negative Staphylococcus species: S. auricularis (two strains), S. warneri (five strains), S. capitis (five strains), S. haemolyticus (four strains), S. hominis (seven strains), S. cohnii (two strains), and S. saprophyticus, S. caprae and S. simulans (one strain each). Identification of the clinical strains was obtained using VITEK® 2 System (Biomérieux).
# [7] = test system: Staphylococcus haemolyticus (CHUG-Scap4); test: MIC, Staphylococcus panel (Table I-2); conditions: 18 h, 4% DMSO
# Method: as §1, §2, §3, §5
# [8] = test system: Staphylococcus haemolyticus (CHUG-Scap5); test: MIC, Staphylococcus panel (Table I-2); conditions: 18 h, 4% DMSO
# Method: as §1, §2, §3, §5
# [9] = test system: Staphylococcus capitis (CHUG-Scap4); test: MIC, Staphylococcus panel (Table I-2); conditions: 18 h, 4% DMSO
# Method: as §1, §2, §3, §5
# [10] = test system: Staphylococcus hominis (CHUG-Shom8); test: MIC, Staphylococcus panel (Table I-2); conditions: 18 h, 4% DMSO
# Method: as §1, §2, §3, §5
# [11] = test system: Staphylococcus hominis (CHUG-Shom4); test: MIC, Staphylococcus panel (Table I-2); conditions: 18 h, 4% DMSO
# Method: as §1, §2, §3, §5
# [12] = test system: Staphylococcus capitis (CHUG-Scap5); test: MIC, Staphylococcus panel (Table I-2); conditions: 18 h, 4% DMSO
# Method: as §1, §2, §3, §5
# [13] = test system: Staphylococcus haemolyticus (CHUG-Scap6); test: MIC, Staphylococcus panel (Table I-2); conditions: 18 h, 4% DMSO
# Method: as §1, §2, §3, §5
# [14] = test system: Staphylococcus capitis (CHUG-Scap6); test: MIC, Staphylococcus panel (Table I-2); conditions: 18 h, 4% DMSO
# Method: as §1, §2, §3, §5
# [15] = test system: Staphylococcus sciuri ATCC 29061; test: MIC, Staphylococcus panel (Table I-2); conditions: Mammaliicoccus sciuri, ATCC29061, 18 h, 4% DMSO
# Method: as §1, §2, §3, §5
# [16] = test system: Staphylococcus warneri (CHUG-Swar4); test: MIC, Staphylococcus panel (Table I-2); conditions: 18 h, 4% DMSO
# Method: as §1, §2, §3, §5
# [17] = test system: Staphylococcus auricularis (CHUG-Saur3); test: MIC, Staphylococcus panel (Table I-2); conditions: 18 h, 4% DMSO
# Method: as §1, §2, §3, §5
# [18] = test system: Staphylococcus caprae (CHUG-Scapra1); test: MIC, Staphylococcus panel (Table I-2); conditions: 18 h, 4% DMSO
# Method: as §1, §2, §3, §5
# [19] = test system: Staphylococcus capitis (CHUG-Scap1); test: MIC, Staphylococcus panel (Table I-2); conditions: 18 h, 4% DMSO
# Method: as §1, §2, §3, §5
# [20] = test system: Staphylococcus cohnii (CHUG-Scoh2); test: MIC, Staphylococcus panel (Table I-2); conditions: 18 h, 4% DMSO
# Method: as §1, §2, §3, §5
# [21] = test system: Staphylococcus epidermidis ATCC 49461; test: MIC, Staphylococcus panel (Table I-2); conditions: ATCC49461, 18 h, 4% DMSO
# Method: as §1, §2, §3, §5
Structure (SMILES),MIC [1] [µg/mL],MIC [2] [µg/mL],MIC [3] [µg/mL],MIC [4] [µg/mL],IC50 [5] [µM],MIC [6] [µg/mL],MIC [7] [µg/mL],MIC [8] [µg/mL],MIC [9] [µg/mL],MIC [10] [µg/mL],MIC [11] [µg/mL],MIC [12] [µg/mL],MIC [13] [µg/mL],MIC [14] [µg/mL],MIC [15] [µg/mL],MIC [16] [µg/mL],MIC [17] [µg/mL],MIC [18] [µg/mL],MIC [19] [µg/mL],MIC [20] [µg/mL],other results
"CC(C)(C)OC(=O)NCC(NC(=O)C(=O)c1c[nH]c2ccc(Br)cc12)c1c[nH]c2ccc(Br)cc12 (stereo not drawn) [Compound 4, tert-Butyl(2-(5-bromo-1H-indol-3-yl)-2-(2-(5-bromo-1H-indol-3-yl)-2-oxoacetamido)ethyl) carbamate]",1,1,1,1,4.55,1,2,1,1,1,1,1,2,1,2,1,1,1,1,2,MIC [21]: 1 µg/mL
"CC(NC(=O)C(=O)c1c[nH]c2ccc(Br)cc12)c1c[nH]c2ccc(Br)cc12 (stereo not drawn) [Compound 5, 2-(5-Bromo-1H-indol-3-yl)-N-(1-(5-bromo-1H-indol-3-yl)ethyl)-2-oxoacetamide]",2,2,1,2,10.1,2,4,4,1,2,2,2,4,1,4,2,1,2,2,2,MIC [21]: 2 µg/mL
